Data set [1] in a line: Half life in rat liver microsomes. It counts as ADME, Microsome. In general terms: Liver microsomes are a subcellular fraction often used to study metabolism.
Data set [2] in a line: Lipophilicity, logD of compound in 1-octanol/PBS at pH 7.4 incubated for 24 hrs by HPLC analysis. It is filed as physicochemical.
Data set [3] is described as follows: Unbound clearance in Sprague-Dawley rat at 1 mg/kg/day, iv measured for 24 hrs by LC-MS/MS analysis. It is filed as ADME, organism-based. As to conditions: in vivo.
Data set [4] is described as follows: Stability in rat hepatocytes assessed as half life. It is filed as ADME, cell-based, Hepatocyte.
The target in the next data set is Cytochrome P450 2C19 (Homo sapiens, UniProt P33261). Nature of the data set: Inhibition of CYP2C19 (unknown origin). It is filed as ADME.
The next data set relates to HepG2. Nature of the data set: Cytotoxicity against human HepG2 cells assessed as cell viability at 50 uM relative to control. It counts as functional. The settings on record: read-out: Activity.
Data set [5] has as its system MV4-11. Nature of the data set: Antiproliferative activity against human MV4-11 cells assessed as inhibition of cell viability incubated for 72 hrs by ATPlite assay. It is filed as functional, cell-based. As to conditions: MV4-11, 72 h.
The subject of the next data set is Caov-3 cell line. Nature of the data set: Antiproliferative activity against human Caov-3 cells assessed as inhibition of cell viability incubated for 72 hrs by ATPlite assay. The settings on record: Caov-3, 72 h. It is filed as functional, cell-based. Background: ATP-based viability assays read luminescence as a measure of living cells.
For data set [6], the system named is SK-OV-3. Nature of the data set: Antiproliferative activity against human SK-OV-3 cells assessed as inhibition of cell viability incubated for 72 hrs by ATPlite assay. It counts as functional, cell-based. The settings on record: SK-OV-3, 72 h.
Another data set has as its system NCI-H1650. Nature of the data set: Growth inhibition of human NCI-H1650 cells spheroid model. It is filed as functional, cell-based.
Data set [7] has as its target METTL3/METTL14 (Homo sapiens) (UniProt Q86U44+Q9HCE5). Nature of the data set: (§1) Inhibition of METTL3/METTL14-mediated m6A mRNA expression in human MV4-11 cells incubated for 24 hrs by LC-MS/MS analysis. It counts as cell-based.
A further data set concerns the target METTL3/METTL14 (Homo sapiens, UniProt Q86U44). Described as §1. It is filed as cell-based.
A short description of data set [8]: Unbound AUC in mouse at 30 mg/kg, ip. It counts as ADME, organism-based. The settings on record: in vivo.
A short description of data set [9]: In vivo inhibition of METTL3/METTL14-mediated m6A mRNA expression in PBMC of rat at 0.3 mg/kg, ip relative to control. It counts as functional.
The subject of data set [10] is MV4-11. Nature of the data set: Antitumor activity against human MV4-11 cells expressing Luc-mCh-Puro xenografted in NSG mouse assessed as inhibition of cancer progression at 30 mg/kg, ip qd treated for 31 days measured upto 40 days by bioluminescence imaging analysis. It counts as functional, organism-based. As to conditions: time <= 40.0 day. (A xenograft is tissue or cells of one species grown in another, often human tumour cells in immunodeficient mice.)

In data set [11] the test system is MV4-11. Nature of the data set: Antitumor activity against human MV4-11 cells expressing Luc-mCh-Puro xenografted in NSG mouse assessed as decrease in hCD45+ cells in bone marrow at 30 mg/kg, ip qd measured after 28 days by flow cytometry. It is filed as functional, organism-based. The settings on record: time 28.0 day.
In data set [12] the test system is MV4-11. Nature of the data set: Antitumor activity against human MV4-11 cells expressing Luc-mCh-Puro xenografted in NSG mouse assessed as decrease in hCD45+ cells in blood at 30 mg/kg, ip qd measured after 28 days by flow cytometry. It counts as functional, organism-based. As to conditions: time 28.0 day.
For data set [13], the system named is MV4-11. Nature of the data set: Antitumor activity against human MV4-11 cells expressing Luc-mCh-Puro xenografted in NSG mouse assessed as decrease in hCD45+ cells in spleen at 30 mg/kg, ip qd measured after 28 days by flow cytometry. It counts as functional, organism-based. As to conditions: time 28.0 day.
The subject of data set [14] is SK-OV-3. Nature of the data set: Antitumor activity against human SK-OV-3 cells xenografted in NSG mouse assessed as tumor growth inhibition at 30 mg/kg, ip qd treated for 52 days by bioluminescence imaging analysis. It is filed as functional, organism-based. As to conditions: time 52.0 day.
Data set [15] is described as follows: Toxicity in NSG mouse xenografted with human FaDu cells assessed as macroscopic adverse events at 30 mg/kg, ip qd treated for 20 days. It counts as organism-based. The settings on record: in vivo, 480 h, time 20 day.
Data set [16] in a line: Toxicity in NSG mouse xenografted with human A549 cells assessed as macroscopic adverse events at 30 mg/kg, ip qd treated for 50 days. It is filed as organism-based. As to conditions: in vivo, 1200 h, time 50 day.

Each structure is given as a SMILES string. Calls of active or inactive are those of the source. The rule behind the calls is not given here. Where only a bound is given, the exact number is not on record here.

Cytochrome P450 2C19, sequence (P33261 whole entry): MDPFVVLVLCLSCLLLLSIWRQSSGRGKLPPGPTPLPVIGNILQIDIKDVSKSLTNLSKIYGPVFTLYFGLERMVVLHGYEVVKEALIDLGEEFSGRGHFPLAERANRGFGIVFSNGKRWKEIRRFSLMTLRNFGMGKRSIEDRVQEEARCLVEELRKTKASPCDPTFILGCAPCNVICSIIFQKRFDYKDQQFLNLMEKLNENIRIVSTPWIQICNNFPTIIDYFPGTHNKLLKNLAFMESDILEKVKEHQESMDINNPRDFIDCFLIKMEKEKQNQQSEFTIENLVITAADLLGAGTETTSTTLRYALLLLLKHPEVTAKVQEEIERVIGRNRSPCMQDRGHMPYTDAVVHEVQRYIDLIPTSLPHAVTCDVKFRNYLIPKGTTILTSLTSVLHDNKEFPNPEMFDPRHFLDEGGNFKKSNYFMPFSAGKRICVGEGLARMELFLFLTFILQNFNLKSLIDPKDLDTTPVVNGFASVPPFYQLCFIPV
METTL3/METTL14, sequence (Q86U44 whole entry): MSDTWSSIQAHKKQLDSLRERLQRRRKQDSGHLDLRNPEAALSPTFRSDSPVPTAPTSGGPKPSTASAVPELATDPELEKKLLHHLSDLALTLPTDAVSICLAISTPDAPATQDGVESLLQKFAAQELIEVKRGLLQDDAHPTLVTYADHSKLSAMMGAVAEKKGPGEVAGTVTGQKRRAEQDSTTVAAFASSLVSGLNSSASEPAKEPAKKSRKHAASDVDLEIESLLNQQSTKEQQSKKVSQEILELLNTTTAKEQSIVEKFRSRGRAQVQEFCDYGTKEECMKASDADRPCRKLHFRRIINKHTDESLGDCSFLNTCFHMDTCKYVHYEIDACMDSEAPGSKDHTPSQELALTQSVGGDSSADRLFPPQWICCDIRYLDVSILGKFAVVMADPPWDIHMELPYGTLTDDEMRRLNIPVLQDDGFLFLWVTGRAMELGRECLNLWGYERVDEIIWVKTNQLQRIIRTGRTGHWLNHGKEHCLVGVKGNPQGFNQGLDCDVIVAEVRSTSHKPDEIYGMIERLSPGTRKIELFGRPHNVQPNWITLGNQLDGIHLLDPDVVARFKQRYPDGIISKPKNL
METTL3/METTL14, sequence (Q9HCE5 whole entry, further chain): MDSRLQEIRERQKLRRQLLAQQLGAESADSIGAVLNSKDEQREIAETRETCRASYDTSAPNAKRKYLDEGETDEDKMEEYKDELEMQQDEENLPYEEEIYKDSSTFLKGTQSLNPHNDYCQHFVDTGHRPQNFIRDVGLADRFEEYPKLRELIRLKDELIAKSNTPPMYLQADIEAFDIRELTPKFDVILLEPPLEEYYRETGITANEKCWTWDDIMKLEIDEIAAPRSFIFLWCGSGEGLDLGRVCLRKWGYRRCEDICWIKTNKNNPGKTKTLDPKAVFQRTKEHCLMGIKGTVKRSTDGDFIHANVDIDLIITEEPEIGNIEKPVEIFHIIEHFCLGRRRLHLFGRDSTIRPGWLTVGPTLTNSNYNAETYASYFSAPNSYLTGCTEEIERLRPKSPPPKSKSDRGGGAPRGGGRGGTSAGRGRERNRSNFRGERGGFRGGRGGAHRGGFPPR

On to `C[C@@H](n1cc(-c2cncc(N(C)C)c2)nn1)n1ccc(N2CCC[C@@H](NCC3CC3)C2)cc1=O`, for which the half-life in data set [1] is 1.52 h; in [4] it was > 4 h. Besides, the logD at 24 h in data set [2] came to 1.16. In [3], this compound showed a CL free of 358 mL/min/kg. In addition, the IC50 against Cytochrome P450 2C19 is > 100000 nM; in the data set on MV4-11 [5], 234 nM; in the data set on Caov-3 cell line it was 20 nM; in the data set with SK-OV-3 [6], 11 nM; in the data set on NCI-H1650, 99 nM; at METTL3/METTL14, 5 nM. The viability at 50 µM in the data set with HepG2 came to 90.3%. In data set [7], the inhibition result was “Dose-dependent-effect”. For the same compound, the fAUC in data set [8] was found to be 175.8 µM·min. Further, the Emax at 0.3 mg/kg in data set [9] was ~75%. The inhibition result in the data set on MV4-11 [10] and in the data set with SK-OV-3 [14] was “Active” throughout. Moreover, the outcome with MV4-11 [11], in the data set with MV4-11 [12] and with MV4-11 [13] was Active. Besides, the Activity entry in [15] and in data set [16] was “Non-toxic” in each case.

What is called half-life is the time in which the quantity being followed falls by half. As usually defined, the logD is lipophilicity at a set pH, counting ionised and neutral species. What is called IC50 is the midpoint of a concentration-inhibition curve. As usually defined, the Emax is the size of the effect at its maximum, as opposed to the concentration needed.

The values above are taken from ChEMBL document CHEMBL6121062, “Discovery, Optimization, and Preclinical Pharmacology of EP652, a METTL3 Inhibitor with Efficacy in Liquid and Solid Tumor Models” (J Med Chem, 2025).
